Test results from patent publication EP0533933A1, “BISHETEROCYCLIC COMPOUND” (YAMANOUCHI PHARMACEUTICAL CO. LTD., priority 1990, dated 1992).

Assays:
[1] = test system: KK mice; experiment: Hypoglycemic activity (blood glucose decrease in KK mice, glucose oxidase method); type: in vivo; settings: percent decrease of blood glucose from the level prior to administration; dosage level of 100 mg; per os daily for 4 consecutive days, blood glucose on day 5; male KK mice on high caloric diet
Description: Male KK mice, 4-5 weeks old, were obtained from Japan Clea. The animals were individually put on a high caloric diet (CMF, Oriental Yeast) and the individuals weighing about 40 g were selectively used.
For determination of blood glucose, 10 µl of blood was withdrawn from the caudal vein, deproteinized with 100 µl of 0.33 N perchloric acid and centrifuged. The glucose in the supernatant was assayed by the glucose oxidase method. Groups of 6 animals showing 200 mg/dℓ or more of blood glucose were submitted to the experiment.
The test compound was suspended in 0.5% methylcellulose and administered daily per os for 4 consecutive days. Before administration and on day 5, the blood was withdrawn from the caudal vein of each animal and the blood glucose was determined by the above method.
Hypoglycemic potency was expressed in terms of percent decrease from the glucose level prior to administration of the test compound and the results were statistically evaluated at the significance level of p=0.05. * = p<0.05 ** = p<0.01 *** = p<0.001 As a result, a significant hypoglycemic effect was attained within the dose range of 10 to 300 mg/kg.

[2] = test system: Fischer rats; experiment: Oral toxicity in Fischer rats, 3 consecutive days; type: in vivo; settings: Fischer rats (2 animals per sex), orally, 1,000 mg/kg for 3 consecutive days

Row | SMILES | % Inhibition [1] [%] | abnormality after oral administration [2]
1 | O=C1NC(=O)C(Cc2ccc(OC/C=C/COc3ccc(CC4SC(=O)NC4=O)cc3)cc2)S1 (stereo not drawn) [Example 16, trans-1,4-bis[p-[(2,4-dioxo-5-thiazolidinyl)methyl]phenoxy]-2-butene] | 51 | –
2 | O=C1NC(=O)C(Cc2ccc(Cc3ccc(CC4SC(=O)NC4=O)cc3)cc2)S1 (stereo not shown) [Example 15, 4,4'-bis[(2,4-dioxo-5-thiazolidinyl)methyl]diphenylmethane] | 47 | no abnormality was observed
3 | O=C1NC(=O)C(Cc2ccc(OCCCCCCCOc3ccc(CC4SC(=O)NC4=O)cc3)cc2)S1 (stereo not shown) [Example 14, 1,7-bis[4-[(2,4-dioxo-5-thiazolidinyl)methyl]phenoxy]heptane] | 37 | –
